This is an account of results in US9580437B2, “Triazolopyrimidine compounds and uses thereof” (Novartis AG, priority 2014, dated 2017).

The target of assay [1] is EED (1-441)-His protein (Homo sapiens (Human), UniProt O75530). Put plainly: EED-H3K27Me3 peptide competition binding assay by AlphaScreen. Conditions: read-out: (a) IC50 EED Alphascreen binding Qualified. From the text:
EED-H3K27Me3 peptide competition binding assay by AlphaScreen (α-screen)
A general note: Bead proximity is the source of the signal in Alpha formats.

Assay [2] addresses wild type PRC2 (wtPRC2) complex (Homo sapiens (Human), UniProt O75530). Put plainly: EED LC-MS assay. The format is biochemical. The settings on record: read-out: (b) IC50 EED LC-MS Qualified. The protocol:
A 6 μL solution of 3 μM of the peptide substrate H3K27Me0 (histone H3[21-44]-biotin) in reaction buffer was added to initiate each reaction. […] ELISA (H3K27 Methylation) Assay

For orientation: IC50 means the concentration that gives 50% inhibition.

Chain of wild type PRC2 (wtPRC2) complex (O75530 whole entry): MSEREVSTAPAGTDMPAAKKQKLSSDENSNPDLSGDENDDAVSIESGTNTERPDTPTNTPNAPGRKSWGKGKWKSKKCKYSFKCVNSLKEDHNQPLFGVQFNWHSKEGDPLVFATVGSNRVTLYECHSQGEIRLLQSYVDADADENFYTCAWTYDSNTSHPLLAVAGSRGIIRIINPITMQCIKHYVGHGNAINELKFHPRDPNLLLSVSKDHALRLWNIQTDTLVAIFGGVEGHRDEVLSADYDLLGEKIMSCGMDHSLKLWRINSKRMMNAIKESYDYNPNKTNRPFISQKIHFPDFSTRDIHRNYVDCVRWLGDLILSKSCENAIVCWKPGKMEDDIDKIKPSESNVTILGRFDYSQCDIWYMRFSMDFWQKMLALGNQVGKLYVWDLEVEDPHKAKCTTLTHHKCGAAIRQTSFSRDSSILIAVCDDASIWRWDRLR
Chain of wild type PRC2 (wtPRC2) complex (Q15910 whole entry partner): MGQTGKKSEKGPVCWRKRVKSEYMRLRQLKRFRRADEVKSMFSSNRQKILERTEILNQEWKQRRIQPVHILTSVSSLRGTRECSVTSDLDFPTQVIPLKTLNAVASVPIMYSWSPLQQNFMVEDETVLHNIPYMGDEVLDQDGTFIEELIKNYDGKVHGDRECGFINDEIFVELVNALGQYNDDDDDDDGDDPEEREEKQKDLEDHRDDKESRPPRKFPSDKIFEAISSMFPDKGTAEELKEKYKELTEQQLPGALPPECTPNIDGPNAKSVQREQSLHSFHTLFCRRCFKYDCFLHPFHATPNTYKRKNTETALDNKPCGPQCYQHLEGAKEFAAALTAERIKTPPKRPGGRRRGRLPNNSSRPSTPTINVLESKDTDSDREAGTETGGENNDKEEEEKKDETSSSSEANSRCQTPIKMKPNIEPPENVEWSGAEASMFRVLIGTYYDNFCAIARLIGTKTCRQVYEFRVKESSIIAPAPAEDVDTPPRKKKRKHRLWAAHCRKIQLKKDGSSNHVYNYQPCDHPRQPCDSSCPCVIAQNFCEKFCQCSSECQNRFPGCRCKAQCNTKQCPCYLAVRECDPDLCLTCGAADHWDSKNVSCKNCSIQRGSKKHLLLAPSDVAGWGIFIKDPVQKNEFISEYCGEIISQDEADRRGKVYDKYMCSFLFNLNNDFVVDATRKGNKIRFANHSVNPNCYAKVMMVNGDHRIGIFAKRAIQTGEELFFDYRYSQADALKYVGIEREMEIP
Chain of wild type PRC2 (wtPRC2) complex (Q15022 whole entry partner): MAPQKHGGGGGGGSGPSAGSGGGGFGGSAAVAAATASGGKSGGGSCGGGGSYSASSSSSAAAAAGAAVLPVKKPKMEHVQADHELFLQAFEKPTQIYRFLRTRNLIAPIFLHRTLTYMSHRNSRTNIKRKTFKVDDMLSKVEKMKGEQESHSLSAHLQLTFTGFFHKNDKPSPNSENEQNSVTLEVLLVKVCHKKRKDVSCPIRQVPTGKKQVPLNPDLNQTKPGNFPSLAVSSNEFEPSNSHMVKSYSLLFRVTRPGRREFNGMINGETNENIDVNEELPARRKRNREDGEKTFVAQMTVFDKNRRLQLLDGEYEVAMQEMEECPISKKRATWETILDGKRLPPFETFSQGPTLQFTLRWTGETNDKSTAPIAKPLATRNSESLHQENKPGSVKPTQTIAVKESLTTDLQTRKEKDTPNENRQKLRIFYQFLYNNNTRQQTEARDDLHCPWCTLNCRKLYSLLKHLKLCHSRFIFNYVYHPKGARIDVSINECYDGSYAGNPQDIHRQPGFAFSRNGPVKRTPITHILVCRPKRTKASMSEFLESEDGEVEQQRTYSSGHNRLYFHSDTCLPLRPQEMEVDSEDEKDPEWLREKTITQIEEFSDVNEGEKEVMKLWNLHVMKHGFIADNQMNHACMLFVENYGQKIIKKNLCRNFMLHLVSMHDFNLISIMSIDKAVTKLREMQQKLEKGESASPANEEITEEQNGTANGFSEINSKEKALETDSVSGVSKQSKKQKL
Chain of EED (1-441)-His protein (O75530 whole entry): as the sequence (O75530 whole entry) above

Turning to `FC(F)Oc1ccc(-c2cnc(NCc3cccc4c3CCO4)n3cnnc23)cn1` [Example 78, 8-(6-(difluoromethoxy)pyridin-3-yl)-N-((2,3-dihydrobenzofuran-4-yl)methyl)-[1,2,4]triazolo[4,3-c]pyrimidin-5-amine], the IC50 in assay [1] was 103 nM; in assay [2], 160 nM.

`Cc1ncn(-c2cnc(NCc3c(F)ccc4c3CCO4)n3cnnc23)n1` [Example 238, N-((5-fluoro-2,3-dihydrobenzofuran-4-yl)methyl)-8-(3-methyl-1H-1,2,4-triazol-1-yl)-[1,2,4]triazolo[4,3-c]pyrimidin-5-amine]: the IC50 is 4.7 nM in assay [1] and 14.4 nM in assay [2].

Turning to `Fc1ccc2c(c1CNc1ncc(-c3cncnc3)c3nncn13)CCO2` [Example 206, N-((5-fluoro-2,3-dihydrobenzofuran-4-yl)methyl)-8-(pyrimidin-5-yl)-[1,2,4]triazolo[4,3-c]pyrimidin-5-amine], the IC50 in assay [1] was determined as 9.1 nM; in assay [2], 9.5 nM.

With `Nc1cc(F)c(-c2cnc(NCc3cccc4c3CCO4)n3cnnc23)cn1` [Example 58, 8-(6-amino-4-fluoropyridin-3-yl)-N-((2,3-dihydrobenzofuran-4-yl)methyl)-[1,2,4]triazolo[4,3-c]pyrimidin-5-amine], the IC50 was determined as 6.3 nM in assay [1] and 13 nM in assay [2].

With `Cc1nn(CCO)cc1-c1cnc(NCc2c(F)ccc3c2CCO3)n2cnnc12` [Example 190, 2-(4-(5-(((5-fluoro-2,3-dihydrobenzofuran-4-yl)methyl)amino)-[1,2,4]triazolo[4,3-c]pyrimidin-8-yl)-3-methyl-1H-pyrazol-1-yl)ethanol], the half-maximal inhibitory concentration (IC50) amounted to 4.5 nM in assay [1] and 17.1 nM in assay [2].

With `COCCn1nc(C)c(-c2cnc(NCc3c(F)ccc4c3CCO4)n3cnnc23)c1C` [Example 159, N-((5-fluoro-2,3-dihydrobenzofuran-4-yl)methyl)-8-(1-(2-methoxyethyl)-3,5-dimethyl-1H-pyrazol-4-yl)-[1,2,4]triazolo[4,3-c]pyrimidin-5-amine], the figures for the IC50 in assay [1] and in assay [2] were 5 nM and 10.3 nM, respectively.

On to `CC1(C)COC(c2cncc(-c3cnc(NCc4cccc5c4CCO5)n4cnnc34)c2)=N1` [Example 90, N-((2,3-dihydrobenzofuran-4-yl)methyl)-8-(5-(4,4-dimethyl-4,5-dihydrooxazol-2-yl)pyridin-3-yl)-[1,2,4]triazolo[4,3-c]pyrimidin-5-amine], for which the half-maximal inhibitory concentration (IC50) was found to be 13.1 nM in assay [1] and 30.3 nM in assay [2].

For `c1cc(CNc2ncc(-c3cncnc3)c3nncn23)c2c(c1)OCC2` [Example 51, N-((2,3-dihydrobenzofuran-4-yl)methyl)-8-(pyrimidin-5-yl)-[1,2,4]triazolo[4,3-c]pyrimidin-5-amine], the IC50 came to 136 nM in assay [1] and 346 nM in assay [2].

In the case of `Cc1cnccc1-c1cnc(NCc2c(F)ccc3c2CCO3)n2cnnc12` [Example 163, N-((5-fluoro-2,3-dihydrobenzofuran-4-yl)methyl)-8-(3-methylpyridin-4-yl)-[1,2,4]triazolo[4,3-c]pyrimidin-5-amine], the IC50 in assay [1] is 4.1 nM; in assay [2], 10.9 nM.

As to `Fc1ccc2c(c1CNc1ncc(-c3cnccc3C(F)(F)F)c3nncn13)CCO2` [Example 136, N-((5-fluoro-2,3-dihydrobenzofuran-4-yl)methyl)-8-(4-(trifluoromethyl)pyridin-3-yl)-[1,2,4]triazolo[4,3-c]pyrimidin-5-amine], the IC50 in assay [1] is 15.9 nM; in assay [2], 41.8 nM.

Take `Cc1c(-c2cnc(NCc3c(F)ccc4c3CCO4)n3cnnc23)ccc[n+]1[O-]` [Example 204, 3-(5-(((5-fluoro-2,3-dihydrobenzofuran-4-yl)methyl)amino)-[1,2,4]triazolo[4,3-c]pyrimidin-8-yl)-2-methylpyridine 1-oxide]: the values for the IC50 in assay [1] and in assay [2] were 10.6 nM and 19.3 nM, respectively.

In the case of `OCc1ncccc1-c1cnc(NCc2c(F)ccc3c2CCO3)n2cnnc12` [Example 7, (3-(5-(((5-fluoro-2,3-dihydrobenzofuran-4-yl)methyl)amino)-[1,2,4]triazolo[4,3-c]pyrimidin-8-yl)pyridin-2-yl)methanol], the IC50 amounted to 4.8 nM in assay [1] and 9.3 nM in assay [2].

As for `CN(C)C(=O)c1ccc(-c2cnc(NCc3c(F)ccc4c3CCO4)n3cnnc23)cn1` [Example 140, 5-(5-(((5-fluoro-2,3-dihydrobenzofuran-4-yl)methyl)amino)-[1,2,4]triazolo[4,3-c]pyrimidin-8-yl)-N,N-dimethylpicolinamide], the IC50 in assay [1] was determined as 12.7 nM; in assay [2], 55.1 nM.

Take `Cc1ncccc1-c1cnc(NCc2c(F)ccc3c2C(O)CO3)n2cnnc12` (stereo not drawn) [Example 242, 5-fluoro-4-(((8-(2-methylpyridin-3-yl)-[1,2,4]triazolo[4,3-c]pyrimidin-5-yl)amino)methyl)-2,3-dihydrobenzofuran-3-ol]: the IC50 was 13.8 nM in assay [1] and 50 nM in assay [2].

Take `CC(=O)N1CCN(CCc2ccc(-c3cnc(NCc4cccc5c4CCO5)n4cnnc34)cn2)CC1` [Example 108, 1-(4-(2-(5-(5-(((2,3-dihydrobenzofuran-4-yl)methyl)amino)-[1,2,4]triazolo[4,3-c]pyrimidin-8-yl)pyridin-2-yl)ethyl)piperazin-1-yl)ethanone]: the IC50 in assay [1] came out at 6.7 nM; in assay [2] it was 11 nM.

For `Fc1ccc2c(c1CNc1ncc(-c3ccncc3)c3nncn13)CCO2` [Example 45, N-((5-fluoro-2,3-dihydrobenzofuran-4-yl)methyl)-8-(pyridin-4-yl)-[1,2,4]triazolo[4,3-c]pyrimidin-5-amine], the half-maximal inhibitory concentration (IC50) turned out to be 20 nM in assay [1] and 32.8 nM in assay [2].

Turning to `CCOc1cc(C)c(-c2cnc(NCc3c(F)ccc4c3CCO4)n3cnnc23)cn1` [Example 196, 8-(6-ethoxy-4-methylpyridin-3-yl)-N-((5-fluoro-2,3-dihydrobenzofuran-4-yl)methyl)-[1,2,4]triazolo[4,3-c]pyrimidin-5-amine], the IC50 in assay [1] was 3.6 nM; in assay [2] it was 8.2 nM.

Regarding `Cc1ncc(-c2cnc(NCc3c(F)ccc4c3CCO4)n3cnnc23)n1C` [Example 245, 8-(1,2-dimethyl-1H-imidazol-5-yl)-N-((5-fluoro-2,3-dihydrobenzofuran-4-yl)methyl)-[1,2,4]triazolo[4,3-c]pyrimidin-5-amine], the IC50 in assay [1] is 67.2 nM; in assay [2], 223 nM.

On to `Fc1ccc2c(c1CNc1ncc(-c3ccccn3)c3nncn13)CCO2` [Example 231, N-((5-fluoro-2,3-dihydrobenzofuran-4-yl)methyl)-8-(pyridin-2-yl)-[1,2,4]triazolo[4,3-c]pyrimidin-5-amine], for which the IC50 in assay [1] amounted to 6.1 nM; in assay [2] it was 6 nM.

Regarding `CN1CCN(C(=O)c2ccc(-c3cnc(NCc4c(F)ccc5c4CCO5)n4cnnc34)cc2)CC1` [Example 72, (4-(5-(((5-fluoro-2,3-dihydrobenzofuran-4-yl)methyl)amino)-[1,2,4]triazolo[4,3-c]pyrimidin-8-yl)phenyl)(4-methylpiperazin-1-yl)methanone], the IC50 amounted to 9.3 nM in assay [1] and 17.5 nM in assay [2].

Turning to `Cc1c(-c2cnc(NCc3c(F)ccc4c3CCO4)n3cnnc23)ccnc1F` [Example 180, N-((5-fluoro-2,3-dihydrobenzofuran-4-yl)methyl)-8-(2-fluoro-3-methylpyridin-4-yl)-[1,2,4]triazolo[4,3-c]pyrimidin-5-amine], the IC50 in assay [1] amounted to 7.3 nM; in assay [2], 7.9 nM.
